The results in this text go back to patent US20030162751A1, “Pharmaceutical composition comprising 5' monophosphate ester of riboflavin and solubilized riboflavin” (priority 2001, published 2003).

The term solubility denotes the concentration that dissolves in the medium under given conditions.

Converted amounts (≈) assume the structure as drawn. Like-named read-outs stand apart in the source and are kept apart here.

Data set [1] is described as follows: Solubilization of lumichrome in the FMN formulation. It counts as physicochemical. The note with it: in the current FMN formulation.
A short description of data set [2]: Solubility of riboflavin as a function of pH and % FMN. It counts as physicochemical. The text has this:
The intrinsic solubility of riboflavin is approximately 70 mcg/ml (see plot below with no FMN present). Precipitation is expected to occur if riboflavin reaches a level above this (due to riboflavin in drug substance or due to degradation to riboflavin with time), and precipitation would be unacceptable for patient safety with intravenous use.
Solubility of Riboflavin as a function of pH and % FMN [formula]
At 1% FMN, up to 365 mcg/ml of riboflavin can dissolve.

`Cc1cc2nc3[nH]c(=O)[nH]c(=O)c3nc2cc1C` [lumichrome]: the “solubility of lumichrome relative to equilibrium solubility” value in data set [1] was “dissolve at levels above the equilibrium solubility”.
`Cc1cc2nc3c(=O)[nH]c(=O)nc-3n(C[C@H](O)[C@H](O)[C@H](O)CO)c2cc1C` [riboflavin]: the solubility was at most 365 µg/mL in data set [2] (1% FMN solution, aqueous with cosolvent or surfactant or cyclodextrin, read-out: riboflavin solubility (amount that can dissolve)); at most 1320 µg/mL in data set [2] (5% FMN solution, aqueous with cosolvent or surfactant or cyclodextrin, 5% FMN, pH 7-8, read-out: riboflavin solubility (amount that can dissolve)); about 70 µg/mL (≈ 186 µM) in data set [2] (no FMN present, read-out: intrinsic (equilibrium) solubility of riboflavin). Also, the “intrinsic (equilibrium) solubility of riboflavin” value in data set [2] (no FMN present) is reported as “approximately 70 mcg/ml”.
